Laboratory results published in BindingDB's records for patent WO2025049746 (Eikon Therapeutics, 2025).
pIC50: −log10 of the molar value.

How the values were obtained:
[1] = biological target: Bifunctional 3'-5' exonuclease/ATP-dependent helicase WRN (Homo sapiens, UniProt Q14191); experiment: ADP-Glo Kinase Assay
Procedure: ATPase activity was measured using the ADP-Glo Kinase Assay following the manufacturers recommended protocol.

[2] = biological target: T1, Bifunctional 3'-5' exonuclease/ATP-dependent helicase WRN [480-1251] (UniProt Q14191); experiment: Biochemical Activity Assays
T1 construct: 480-1251
T1 sequence (Q14191 480-1251): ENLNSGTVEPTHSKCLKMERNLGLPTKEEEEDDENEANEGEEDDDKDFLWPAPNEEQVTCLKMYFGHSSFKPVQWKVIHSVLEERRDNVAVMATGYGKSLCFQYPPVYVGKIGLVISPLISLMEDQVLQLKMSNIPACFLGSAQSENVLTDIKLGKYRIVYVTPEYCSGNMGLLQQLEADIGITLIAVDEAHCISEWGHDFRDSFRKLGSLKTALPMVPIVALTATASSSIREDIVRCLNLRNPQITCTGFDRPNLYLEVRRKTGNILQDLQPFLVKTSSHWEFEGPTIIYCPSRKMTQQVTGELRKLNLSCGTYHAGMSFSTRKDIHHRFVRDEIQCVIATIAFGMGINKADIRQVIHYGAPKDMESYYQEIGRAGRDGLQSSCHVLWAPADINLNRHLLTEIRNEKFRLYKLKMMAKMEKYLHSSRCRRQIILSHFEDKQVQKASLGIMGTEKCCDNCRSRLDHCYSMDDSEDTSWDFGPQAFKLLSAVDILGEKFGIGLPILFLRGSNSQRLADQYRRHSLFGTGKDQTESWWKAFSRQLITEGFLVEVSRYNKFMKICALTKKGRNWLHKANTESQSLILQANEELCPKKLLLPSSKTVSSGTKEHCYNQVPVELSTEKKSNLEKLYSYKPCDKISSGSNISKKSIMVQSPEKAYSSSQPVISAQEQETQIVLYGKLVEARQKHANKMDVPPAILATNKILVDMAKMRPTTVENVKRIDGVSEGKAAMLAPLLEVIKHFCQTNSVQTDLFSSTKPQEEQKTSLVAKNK

Sequence of Bifunctional 3'-5' exonuclease/ATP-dependent helicase WRN (Q14191 whole entry): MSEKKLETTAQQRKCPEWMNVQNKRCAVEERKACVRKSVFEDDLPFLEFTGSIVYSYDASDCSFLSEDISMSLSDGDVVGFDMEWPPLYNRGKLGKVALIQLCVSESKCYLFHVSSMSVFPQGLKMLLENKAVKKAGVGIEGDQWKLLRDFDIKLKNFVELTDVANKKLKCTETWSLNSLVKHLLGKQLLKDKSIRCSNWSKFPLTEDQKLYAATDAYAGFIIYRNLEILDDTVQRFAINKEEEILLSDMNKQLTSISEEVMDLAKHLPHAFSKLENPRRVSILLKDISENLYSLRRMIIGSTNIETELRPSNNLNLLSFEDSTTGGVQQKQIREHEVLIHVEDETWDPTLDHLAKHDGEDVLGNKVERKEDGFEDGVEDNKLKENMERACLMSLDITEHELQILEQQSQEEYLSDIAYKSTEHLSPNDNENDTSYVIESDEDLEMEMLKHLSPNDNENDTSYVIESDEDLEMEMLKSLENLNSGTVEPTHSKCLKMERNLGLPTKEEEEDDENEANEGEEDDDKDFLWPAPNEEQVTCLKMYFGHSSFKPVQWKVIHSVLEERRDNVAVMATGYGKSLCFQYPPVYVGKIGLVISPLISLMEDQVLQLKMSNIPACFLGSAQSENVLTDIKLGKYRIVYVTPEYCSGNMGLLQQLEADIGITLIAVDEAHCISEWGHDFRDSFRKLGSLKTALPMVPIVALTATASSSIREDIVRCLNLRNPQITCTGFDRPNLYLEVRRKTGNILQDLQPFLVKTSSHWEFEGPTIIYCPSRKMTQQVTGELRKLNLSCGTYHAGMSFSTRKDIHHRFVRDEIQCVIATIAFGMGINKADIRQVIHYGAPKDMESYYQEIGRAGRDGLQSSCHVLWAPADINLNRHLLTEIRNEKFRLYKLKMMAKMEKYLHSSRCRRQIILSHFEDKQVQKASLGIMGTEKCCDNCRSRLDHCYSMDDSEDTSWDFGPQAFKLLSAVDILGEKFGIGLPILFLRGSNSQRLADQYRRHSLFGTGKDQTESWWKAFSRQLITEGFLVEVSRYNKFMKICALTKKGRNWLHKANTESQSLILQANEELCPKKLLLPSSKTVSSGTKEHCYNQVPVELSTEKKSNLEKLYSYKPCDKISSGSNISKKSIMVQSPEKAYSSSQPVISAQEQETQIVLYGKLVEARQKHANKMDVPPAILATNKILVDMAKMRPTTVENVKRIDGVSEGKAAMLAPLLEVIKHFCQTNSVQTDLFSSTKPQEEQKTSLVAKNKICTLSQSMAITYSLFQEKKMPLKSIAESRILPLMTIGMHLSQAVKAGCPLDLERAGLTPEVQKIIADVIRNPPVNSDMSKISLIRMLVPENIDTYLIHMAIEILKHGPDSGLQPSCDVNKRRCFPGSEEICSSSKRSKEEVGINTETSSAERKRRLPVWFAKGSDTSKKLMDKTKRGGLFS

| Compound | pIC50 [1] | pIC50 [2] |
| --- | --- | --- |
| CCc1c(N2CCN(C(=O)c3ncnc(C)c3O)CC2)c(=O)n2nc(-c3ccc4ncncc4c3)nc2n1CC(=O)Nc1ccc(C(F)(F)F)cc1Cl [WO2025049746, Example 263] | 7.62 | 7.64 |
| CCc1c(N2CCN(C(=O)c3ncnc(C)c3O)CC2)c(=O)n2nc(-c3ccc4ncccc4c3)nc2n1CC(=O)Nc1ccc(C(F)(F)F)cc1Cl [WO2025049746, Example 264] | 7.64 | 7.62 |
| CCc1c(N2CCN(C(=O)c3ncnc(C)c3O)CC2)c(=O)n2nc(-c3ccc4nscc4c3)nc2n1CC(=O)Nc1ccc(C(F)(F)F)cc1Cl [WO2025049746, Example 266] | 7.66 | 7.66 |
| CCc1c(N2CCN(C(=O)c3ncnc(C)c3O)CC2)c(=O)n2nc(-c3ccc(C(=O)N4CCCC4)cc3)nc2n1CC(=O)Nc1ccc(C(F)(F)F)cc1Cl [WO2025049746, Example 267] | 7.59 | 7.64 |
| CCc1c(N2CCN(C(=O)c3ncnc(C)c3O)CC2)c(=O)n2nc(-c3ccc(S(=O)(=O)N4CCC4)cc3)nc2n1CC(=O)Nc1ccc(C(F)(F)F)cc1Cl [WO2025049746, Example 270] | 7.72 | 7.74 |
| CCc1c(N2CCN(C(=O)c3ncnc(C)c3O)CC2)c(=O)n2nc(-c3ccc4c(c3)CO[C@H]4C(F)(F)F)nc2n1CC(=O)Nc1ccc(C(F)(F)F)cc1Cl [WO2025049746, Example 274] | 6.31 | 6.26 |
| CCc1c(N2CCN(C(=O)c3ncnc(C)c3O)CC2)c(=O)n2nc(-c3ccc4c(c3)[C@@H](C(F)(F)F)OC4)nc2n1CC(=O)Nc1ccc(C(F)(F)F)cc1Cl [WO2025049746, Example 275] | 7.10 | 7.04 |
| CCc1c(N2CCN(C(=O)c3ncnc(C)c3O)CC2)c(=O)n2nc(-c3ccc4c(c3)COC43COC3)nc2n1CC(=O)Nc1ccc(C(F)(F)F)cc1Cl [WO2025049746, Example 278] | 7.51 | 7.44 |
| CCc1c(N2CCN(C(=O)c3ncnc(C)c3O)CC2)c(=O)n2nc(-c3ccc4c(c3)CS(=O)(=O)N4C)nc2n1CC(=O)Nc1ccc(C(F)(F)F)cc1Cl [WO2025049746, Example 279] | 7.59 | 7.54 |

Results, then the compound that gave them:

| pIC50 [1] | pIC50 [2] | Compound |
| --- | --- | --- |
| 7.52 | 7.51 | CCc1c(N2CCN(C(=O)c3ncnc(C)c3O)CC2)c(=O)n2nc(-c3ccc4nn(C(C)C)cc4c3)nc2n1CC(=O)Nc1ccc(C(F)(F)F)cc1Cl [WO2025049746, Example 262] |
| 7.40 | 7.40 | CCc1c(N2CCN(C(=O)c3ncnc(C)c3O)CC2)c(=O)n2nc(-c3ccc4conc4c3)nc2n1CC(=O)Nc1ccc(C(F)(F)F)cc1Cl [WO2025049746, Example 265] |
| 7.21 | 7.20 | CCc1c(N2CCN(C(=O)c3ncnc(C)c3O)CC2)c(=O)n2nc(-c3ccccc3C(=O)NC3CC3)nc2n1CC(=O)Nc1ccc(C(F)(F)F)cc1Cl [WO2025049746, Example 269] |
| 7.55 | 7.46 | CCc1c(N2CCN(C(=O)c3ncnc(C)c3O)CC2)c(=O)n2nc(-c3ccc4c(c3)CC(=O)N4C)nc2n1CC(=O)Nc1ccc(C(F)(F)F)cc1Cl [WO2025049746, Example 271] |
| 7.57 | 7.55 | CCc1c(N2CCN(C(=O)c3ncnc(C)c3O)CC2)c(=O)n2nc(-c3ccn4ncc(C)c4c3)nc2n1CC(=O)Nc1ccc(C(F)(F)F)cc1Cl [WO2025049746, Example 272] |
| 7.37 | 7.32 | CCc1c(N2CCN(C(=O)c3ncnc(C)c3O)CC2)c(=O)n2nc(-c3cc4c(cc3F)C3(CN(C)C3)OC4)nc2n1CC(=O)Nc1ccc(C(F)(F)F)cc1Cl [WO2025049746, Example 273] |
| 7.14 | 7.07 | CCc1c(N2CCN(C(=O)c3ncnc(C)c3O)CC2)c(=O)n2nc(-c3ccc4c(c3)CO[C@@H]4C(F)(F)F)nc2n1CC(=O)Nc1ccc(C(F)(F)F)cc1Cl [WO2025049746, Example 276] |
| 6.75 | 6.76 | CCc1c(N2CCN(C(=O)c3ncnc(C)c3O)CC2)c(=O)n2nc(-c3ccc4c(c3)[C@H](C(F)(F)F)OC4)nc2n1CC(=O)Nc1ccc(C(F)(F)F)cc1Cl [WO2025049746, Example 277] |
